This note sets out measurements from US9315505B2, “Heterocyclic compounds and uses thereof” (INTELLIKINE LLC, priority 2009, dated 2016).

Holding throughout (type): biochemical
For experiment [1], the target named is T1, PI3K α (Homo sapiens, UniProt P42336).
T1 construct: purchased Upstate
In words: In vitro IC50, PI3K α (p110α/p85α inhibition assay). The following applies: in vitro kinase assay; read-out: IC50(nM) PI3K α. The procedure:
(§1) IC50 values are measured using either a standard TLC assay for lipid kinase activity (described below) or a high-throughput membrane capture assay. Kinase reactions are performed by preparing a reaction mixture containing kinase, inhibitor (2% DMSO final concentration), buffer (25 mM HEPES, pH 7.4, 10 mM MgCl2), and freshly sonicated phosphatidylinositol (100 μg/ml). Reactions are initiated by the addition of ATP containing 10 μCi of γ-32P-ATP to a final concentration 10 or 100 μM and allowed to proceed for 5 minutes at room temperature. For TLC analysis, reactions are then terminated by the addition of 105 μl 1N HCl followed by 160 μl CHCl3:MeOH (1:1). The biphasic mixture is vortexed, briefly centrifuged, and the organic phase is transferred to a new tube using a gel loading pipette tip precoated with CHCl3. This extract is spotted on TLC plates and developed for 3-4 hours in a 65:35 solution of n-propanol:1M acetic acid. The TLC plates are then dried, exposed to a phosphorimager screen (Storm, Amersham), and quantitated.
(§2) Other commercial kits or systems for assaying PI3-K activities are available. The commercially available kits or systems can be used to screen for inhibitors and/or agonists of PI3-Ks including but not limited to PI 3-Kinase α, β, δ, and γ. An exemplary system is PI 3-Kinase (human) HTRF™ Assay from Upstate. […] Briefly, the assay is a time resolved FRET assay that indirectly measures PIP3 product formed by the activity of a PI3-K. The kinase reaction is performed in a microtitre plate (e.g., a 384 well microtitre plate). The total reaction volume is approximately 20 ul per well. In the first step, each well receives 2 ul of test compound in 20% dimethylsulphoxide resulting in a 2% DMSO final concentration. Next, approximately 14.5 ul of a kinase/PIP2 mixture (diluted in 1× reaction buffer) is added per well for a final concentration of 0.25-0.3 ug/ml kinase and 10 uM PIP2. The plate is sealed and incubated for 15 minutes at room temperature. To start the reaction, 3.5 ul of ATP (diluted in 1× reaction buffer) is added per well for a final concentration of 10 uM ATP. The plate is sealed and incubated for 1 hour at room temperature. The reaction is stopped by adding 5 ul of Stop Solution per well and then 5 ul of Detection Mix is added per well. The plate is sealed, incubated for 1 hour at room temperature, and then read on an appropriate plate reader. Data is analyzed and IC50s are generated using GraphPad Prism 5.

Experiment [2] concerns the target T2, PI3K δ (Homo sapiens, UniProt O00329).
T2 construct: purchased Upstate
In words: In vitro IC50, PI3K δ (p110δ/p85α inhibition assay). The following applies: in vitro kinase assay; read-out: IC50(nM) PI3K δ. The protocol:
as §1, §2

For experiment [3], the target named is T3, PI3K γ (Homo sapiens, UniProt P48736).
T3 construct: purchased Sigma
In words: In vitro IC50, PI3K γ (p110γ inhibition assay). The following applies: in vitro kinase assay. The protocol:
as §1, with “Class I PI3-Ks can be either purchased (p110α/p85α, p110β/p85α, p110δ/p85α from Upstate, and p110γ from Sigma) or expressed as previously described (Knight et al., 2004). IC50” for “IC50”, “quantitated. For each compound, kinase activity is measured at 10-12 inhibitor concentrations representing two-fold dilutions from the highest concentration tested (typically, 200 μM).” for “quantitated.”
as §2

The structures appear in SMILES notation.

T2 sequence (O00329 whole entry): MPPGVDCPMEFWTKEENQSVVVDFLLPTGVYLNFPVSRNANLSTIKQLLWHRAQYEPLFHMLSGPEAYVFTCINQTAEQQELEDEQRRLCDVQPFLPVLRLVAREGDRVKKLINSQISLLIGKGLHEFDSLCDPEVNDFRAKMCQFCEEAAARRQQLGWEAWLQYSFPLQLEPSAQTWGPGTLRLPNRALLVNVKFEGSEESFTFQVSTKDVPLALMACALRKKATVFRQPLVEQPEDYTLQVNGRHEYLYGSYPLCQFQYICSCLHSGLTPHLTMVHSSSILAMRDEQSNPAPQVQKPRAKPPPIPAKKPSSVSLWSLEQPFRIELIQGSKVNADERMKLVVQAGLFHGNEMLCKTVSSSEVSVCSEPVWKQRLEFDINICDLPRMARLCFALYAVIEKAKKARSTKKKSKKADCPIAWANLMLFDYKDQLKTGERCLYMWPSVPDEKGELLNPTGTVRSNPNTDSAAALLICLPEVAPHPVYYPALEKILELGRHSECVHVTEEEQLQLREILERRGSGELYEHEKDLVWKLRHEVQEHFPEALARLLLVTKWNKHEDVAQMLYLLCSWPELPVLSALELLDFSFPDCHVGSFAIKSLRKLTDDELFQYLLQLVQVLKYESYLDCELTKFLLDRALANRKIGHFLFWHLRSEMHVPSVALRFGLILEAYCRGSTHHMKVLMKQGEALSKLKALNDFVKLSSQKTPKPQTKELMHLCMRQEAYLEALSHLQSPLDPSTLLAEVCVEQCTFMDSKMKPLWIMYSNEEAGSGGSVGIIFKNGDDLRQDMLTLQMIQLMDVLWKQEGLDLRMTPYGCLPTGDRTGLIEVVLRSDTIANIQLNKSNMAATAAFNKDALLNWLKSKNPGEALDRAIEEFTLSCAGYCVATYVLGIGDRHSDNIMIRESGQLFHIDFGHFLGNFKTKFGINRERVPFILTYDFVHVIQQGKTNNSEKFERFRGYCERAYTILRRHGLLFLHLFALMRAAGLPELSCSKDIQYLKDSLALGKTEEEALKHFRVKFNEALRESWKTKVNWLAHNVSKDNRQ
T2 sequence (P27986 whole entry partner): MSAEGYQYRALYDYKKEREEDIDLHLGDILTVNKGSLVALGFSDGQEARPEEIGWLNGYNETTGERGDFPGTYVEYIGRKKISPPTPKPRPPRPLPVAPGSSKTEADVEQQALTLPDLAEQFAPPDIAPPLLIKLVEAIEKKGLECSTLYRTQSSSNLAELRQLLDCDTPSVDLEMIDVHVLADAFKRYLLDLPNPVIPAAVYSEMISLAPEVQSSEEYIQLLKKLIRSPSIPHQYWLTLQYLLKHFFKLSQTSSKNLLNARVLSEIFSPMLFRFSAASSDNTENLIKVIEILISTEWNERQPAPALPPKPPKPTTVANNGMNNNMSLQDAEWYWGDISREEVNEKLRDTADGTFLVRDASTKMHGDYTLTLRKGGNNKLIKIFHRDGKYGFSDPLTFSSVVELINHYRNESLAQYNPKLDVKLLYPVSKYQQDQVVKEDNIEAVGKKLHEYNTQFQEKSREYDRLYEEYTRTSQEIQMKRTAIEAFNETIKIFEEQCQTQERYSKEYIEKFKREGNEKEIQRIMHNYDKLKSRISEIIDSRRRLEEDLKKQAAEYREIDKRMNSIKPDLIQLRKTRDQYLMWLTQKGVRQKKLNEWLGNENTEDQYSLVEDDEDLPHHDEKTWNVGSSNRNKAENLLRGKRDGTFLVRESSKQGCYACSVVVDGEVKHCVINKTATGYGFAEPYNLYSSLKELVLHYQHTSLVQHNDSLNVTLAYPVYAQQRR
T3 sequence (P48736 whole entry): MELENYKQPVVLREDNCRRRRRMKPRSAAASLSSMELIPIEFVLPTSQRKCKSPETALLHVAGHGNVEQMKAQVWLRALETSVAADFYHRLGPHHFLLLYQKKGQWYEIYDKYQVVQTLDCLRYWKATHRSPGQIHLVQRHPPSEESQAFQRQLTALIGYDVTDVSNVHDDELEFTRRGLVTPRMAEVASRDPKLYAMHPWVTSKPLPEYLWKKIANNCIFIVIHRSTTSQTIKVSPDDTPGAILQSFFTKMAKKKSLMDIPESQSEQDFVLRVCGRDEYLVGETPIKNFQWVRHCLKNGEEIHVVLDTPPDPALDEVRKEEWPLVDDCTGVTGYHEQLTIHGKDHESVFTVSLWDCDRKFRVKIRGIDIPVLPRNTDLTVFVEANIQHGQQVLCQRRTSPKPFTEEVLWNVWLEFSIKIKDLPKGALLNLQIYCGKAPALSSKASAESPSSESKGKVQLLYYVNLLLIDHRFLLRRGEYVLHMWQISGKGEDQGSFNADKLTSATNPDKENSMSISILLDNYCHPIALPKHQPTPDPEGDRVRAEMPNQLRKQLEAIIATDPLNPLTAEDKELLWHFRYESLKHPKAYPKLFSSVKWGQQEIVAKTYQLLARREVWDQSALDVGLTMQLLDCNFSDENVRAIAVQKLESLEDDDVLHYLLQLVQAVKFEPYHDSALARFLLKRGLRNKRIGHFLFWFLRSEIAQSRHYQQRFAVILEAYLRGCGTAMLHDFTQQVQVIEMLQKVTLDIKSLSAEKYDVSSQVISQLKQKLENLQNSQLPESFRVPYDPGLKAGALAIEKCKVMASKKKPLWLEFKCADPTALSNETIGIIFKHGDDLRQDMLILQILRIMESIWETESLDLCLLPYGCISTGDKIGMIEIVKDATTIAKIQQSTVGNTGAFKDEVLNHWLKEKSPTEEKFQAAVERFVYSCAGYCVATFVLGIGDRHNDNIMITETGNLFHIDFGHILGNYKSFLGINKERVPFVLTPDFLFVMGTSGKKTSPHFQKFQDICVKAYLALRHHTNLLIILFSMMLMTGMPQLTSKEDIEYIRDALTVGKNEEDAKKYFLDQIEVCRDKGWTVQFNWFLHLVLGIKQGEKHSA
T1 sequence (P42336 whole entry): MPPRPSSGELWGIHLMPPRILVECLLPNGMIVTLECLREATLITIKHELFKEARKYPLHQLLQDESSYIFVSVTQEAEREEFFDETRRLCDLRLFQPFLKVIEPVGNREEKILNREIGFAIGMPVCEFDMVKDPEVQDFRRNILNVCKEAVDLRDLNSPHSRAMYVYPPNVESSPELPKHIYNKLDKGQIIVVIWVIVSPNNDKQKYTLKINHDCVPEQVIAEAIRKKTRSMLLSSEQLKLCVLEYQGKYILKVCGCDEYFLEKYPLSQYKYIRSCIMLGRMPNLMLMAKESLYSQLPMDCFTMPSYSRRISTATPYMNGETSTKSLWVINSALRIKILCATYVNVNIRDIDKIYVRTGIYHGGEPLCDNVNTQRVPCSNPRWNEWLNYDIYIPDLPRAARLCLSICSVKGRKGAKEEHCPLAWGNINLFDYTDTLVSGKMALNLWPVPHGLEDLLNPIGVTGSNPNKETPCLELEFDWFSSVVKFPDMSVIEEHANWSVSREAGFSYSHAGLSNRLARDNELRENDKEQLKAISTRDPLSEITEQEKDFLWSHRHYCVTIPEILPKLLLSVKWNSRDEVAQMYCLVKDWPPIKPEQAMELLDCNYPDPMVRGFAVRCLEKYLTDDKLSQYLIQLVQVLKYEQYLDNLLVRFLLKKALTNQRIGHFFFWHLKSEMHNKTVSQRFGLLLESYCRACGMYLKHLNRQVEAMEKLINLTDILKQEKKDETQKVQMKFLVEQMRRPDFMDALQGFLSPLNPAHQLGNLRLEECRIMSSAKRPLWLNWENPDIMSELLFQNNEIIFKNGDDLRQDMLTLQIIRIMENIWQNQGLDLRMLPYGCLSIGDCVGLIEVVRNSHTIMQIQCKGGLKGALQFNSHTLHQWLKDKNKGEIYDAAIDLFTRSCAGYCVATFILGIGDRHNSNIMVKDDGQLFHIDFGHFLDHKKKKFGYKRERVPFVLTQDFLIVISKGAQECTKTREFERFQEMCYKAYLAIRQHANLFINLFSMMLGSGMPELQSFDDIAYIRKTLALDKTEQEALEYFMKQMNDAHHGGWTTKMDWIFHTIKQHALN
T1 sequence (P27986 whole entry partner): as the sequence (P27986 whole entry partner) above

Take `C[C@H](Nc1ncnc2[nH]cnc12)c1nc(N2CCOCC2)c2c(Cl)cccc2n1` [Compound 93]: the results for the IC50 in experiment [1], in experiment [2] and in experiment [3] were above 10000 nM, below 10000 nM and above 10000 nM, respectively.
As to `Cc1cccc2cc([C@@H](C)Nc3ncnc4[nH]cnc34)nc(OC3CCN(S(C)(=O)=O)CC3)c12` [Compound 87], the IC50 was above 10000 nM in experiment [1], below 10000 nM in experiment [2] and above 10000 nM in experiment [3].
Turning to `CC(Nc1ncnc2[nH]cnc12)c1cc2cccc(Cl)c2c(CCN2CCN(S(C)(=O)=O)CC2)n1` (stereo not drawn) [Compound 80], the IC50 in experiment [1] is above 10000 nM; in experiment [2], below 100 nM; in experiment [3], below 10000 nM.
Taken in the same sequence, the figures for `CC(Nc1ncnc2[nH]cnc12)c1cc2ccccc2c(OC2CCN(S(C)(=O)=O)CC2)n1` (stereo not drawn) [Compound 53] were above 10000 nM, below 1000 nM and above 10000 nM.
Consider `Cc1cccc2cc(C(C)Nc3ncnc4[nH]cnc34)nc(N3CCN(C)CC3)c12` (stereo not drawn) [Compound 19], for which the half-maximal inhibitory concentration (IC50) in experiment [2] is below 100 nM; in experiment [3], above 10000 nM.
On to `CC(=O)N1CCC(Oc2nc(C(C)Nc3ncnc4[nH]cnc34)cc3ccccc23)CC1` (stereo not drawn) [Compound 52], for which the values for the IC50 in experiment [1], in experiment [2] and in experiment [3] were above 10000 nM, below 1000 nM and above 10000 nM, respectively.
On to `Cc1cccc2cc(C(C)Nc3ncnc4[nH]cnc34)nc(OC3CCN(S(C)(=O)=O)CC3)c12` (stereo not drawn) [Compound 48], for which the IC50 in experiment [1] is above 10000 nM; in experiment [2], below 100 nM; in experiment [3], below 10000 nM.
Regarding `Cc1cccc2cc(C(C)Nc3ncnc4[nH]cnc34)nc(OC3CCNCC3)c12` (stereo not drawn) [Compound 14], the IC50 in experiment [1] is above 10000 nM; in experiment [2], below 1000 nM; in experiment [3], above 10000 nM.
Take `C[C@H](Nc1ncnc2[nH]cnc12)c1cc2ccccc2c(-c2cccnc2)n1` [Compound 76]: the IC50 is above 10000 nM in experiment [1], below 1000 nM in experiment [2] and below 10000 nM in experiment [3].
Regarding `Cc1cccc2cc(Cn3nc(-c4cn[nH]c4)c4c(N)ncnc43)nc(N3CCN(C)CC3)c12` [Compound 18], the IC50 was below 10000 nM in experiment [1] and below 100 nM in experiment [2].
Take `C[C@H](Nc1ncnc2[nH]cnc12)c1cc2cccc(Cl)c2c(-c2cccnc2)n1` [Compound 82]: the IC50 is above 10000 nM in experiment [1], below 100 nM in experiment [2] and below 1000 nM in experiment [3].
As to `CC(Nc1ncnc2[nH]cnc12)c1cc2cccc(Cl)c2c(CCN2CCOCC2)n1` (stereo not drawn) [Compound 78], the IC50 in experiment [1] was above 10000 nM; in experiment [2] it was below 100 nM; in experiment [3] it was below 10000 nM.
Taken in the same sequence, the figures for `Cc1cccc2cc(CNc3ncnc4[nH]cnc34)nc(OC3CCN(C(C)C)CC3)c12` [Compound 10] were above 10000 nM, below 100 nM and above 10000 nM.
As to `CC(=O)N1CCN(c2nc([C@H](C)Nc3ncnc4[nH]cnc34)nc3cccc(Cl)c23)CC1` [Compound 96], the results for the IC50 in experiment [1], in experiment [2] and in experiment [3] were above 10000 nM, below 1000 nM and below 1000 nM, respectively.
For `CC(=O)N1CCC(Nc2nc(C(C)Nc3ncnc4[nH]cnc34)cc3cccc(C)c23)CC1` (stereo not drawn) [Compound 49], the values for the IC50 in experiment [1], in experiment [2] and in experiment [3] were above 10000 nM, below 1000 nM and below 10000 nM, respectively.
Turning to `CC(=O)Nc1nc2ccc(-c3nn(Cc4cc5cccc(C)c5c(OC(C)C)n4)c4ncnc(N)c34)cc2s1` [Compound 28], the IC50 in experiment [2] is above 10000 nM.
For `C[C@H](Nc1ncnc2[nH]cnc12)c1cc2cccc(Cl)c2c(N2CCN(S(C)(=O)=O)C[C@@H]2C)n1` [Compound 85], the IC50 in experiment [1] was below 1000 nM; in experiment [2], below 100 nM; in experiment [3] it was below 100 nM.
With `Cc1cccc2cc(C(C)Nc3ncnc4[nH]cnc34)nc(OC(C)C)c12` (stereo not drawn) [Compound 32], the IC50 in experiment [2] was below 10000 nM.
With `C[C@H](Nc1ncnc2[nH]cnc12)c1cc2cccc(Cl)c2c(OCCN2CCCC2)n1` [Compound 72], the IC50 in experiment [1] is below 10000 nM; in experiment [2], below 100 nM; in experiment [3], below 1000 nM.
Taken in the same sequence, the figures for `Cc1cccc2cc(Cn3nc(-c4cn[nH]c4)c4c(N)ncnc43)nc(N3CCCC3)c12` [Compound 27] were below 10000 nM, below 100 nM and below 1000 nM.
For the molecule `Cc1cccc2cc(Cn3nc(-c4ccc5oc(N)nc5c4)c4c(N)ncnc43)nc(OC(C)C)c12` [Compound 29], the IC50 in experiment [2] is above 10000 nM.
On the same count and under the same terms, to `Cc1cccc2cc(Cn3nc(-c4cn[nH]c4)c4c(N)ncnc43)nc(OC(C)C)c12` [Compound 30] belongs below 10000 nM.
Turning to `C[C@H](Nc1ncnc2[nH]cnc12)c1cc2cccc(Cl)c2c(OCC2CCN(S(C)(=O)=O)CC2)n1` [Compound 75], the IC50 is above 10000 nM in experiment [1], below 100 nM in experiment [2] and above 10000 nM in experiment [3].
As to `CC(=O)N1CCC(Oc2nc(C(C)Nc3ncnc4[nH]cnc34)cc3cccc(C)c23)CC1` (stereo not drawn) [Compound 47], the figures for the IC50 in experiment [1], in experiment [2] and in experiment [3] were above 10000 nM, below 100 nM and below 1000 nM, respectively.
Taken in the same sequence, the figures for `CC(=O)N1CCN(CCc2nc(C(C)Nc3ncnc4[nH]cnc34)cc3cccc(Cl)c23)CC1` (stereo not drawn) [Compound 81] were above 10000 nM, below 1000 nM and above 10000 nM.
Taken in the same sequence, the figures for `Cc1cccc2cc(C(C)Nc3ncnc4[nH]cnc34)nc(OC3CCN(C(C)C)CC3)c12` (stereo not drawn) [Compound 21] were below 10000 nM, below 100 nM and above 10000 nM.
As to `C[C@H](Nc1ncnc2[nH]cnc12)c1cc2cccc(Cl)c2c(CCN2CCC(F)(F)C2)n1` [Compound 91], the results for the IC50 in experiment [1], in experiment [2] and in experiment [3] were below 10000 nM, below 100 nM and below 10000 nM, respectively.
On to `Cc1cccc2cc(Cn3nc(-c4ccc5oc(N)nc5c4)c4c(N)ncnc43)nc(Oc3ccccc3)c12` [Compound 34], for which the IC50 in experiment [2] was below 10000 nM.
Turning to `C[C@H](Nc1ncnc2[nH]cnc12)c1cc2cccc(Cl)c2c(N(C)C)n1` [Compound 71], the results for the IC50 in experiment [1], in experiment [2] and in experiment [3] were below 10000 nM, below 100 nM and below 1000 nM, respectively.
Taken in the same sequence, the figures for `CC(=O)N1CCN(c2nc([C@H](C)Nc3ncnc4[nH]cnc34)cc3cccc(Cl)c23)CC1` [Compound 69] were above 10000 nM, below 1000 nM and above 10000 nM.
Taken in the same sequence, the figures for `C[C@H](Nc1ncnc2[nH]cnc12)c1cc2cccc(Cl)c2c(CCN2CCC2)n1` [Compound 88] were below 10000 nM, below 100 nM and below 10000 nM.
For `CC(Nc1ncnc2[nH]cnc12)c1cc2ccccc2c(OC2CCNCC2)n1` (stereo not drawn) [Compound 22], the IC50 in experiment [2] was below 10000 nM.
With `Cc1cccc2cc(C(C)Nc3ncnc4[nH]cnc34)nc(NC3CCOCC3)c12` (stereo not drawn) [Compound 43], the IC50 in experiment [2] was below 10000 nM; in experiment [3], above 10000 nM.
As for `Cc1cccc2cc(C(Nc3ncnc4[nH]cnc34)c3ccccc3)ncc12` (stereo not drawn) [Compound 33], in experiment [2], the IC50 was below 10000 nM.
The same measure, in the same setting: the value for `Cc1cccc2cc(C(C)Nc3ncnc4[nH]cnc34)nc(Oc3ccccc3)c12` (stereo not drawn) [Compound 24] was below 1000 nM.
On to `Cc1cccc2cc(C(C)Nc3ncnc4[nH]cnc34)nc(NC3CCN(C)CC3)c12` (stereo not drawn) [Compound 41], for which the IC50 in experiment [2] was below 1000 nM; in experiment [3] it was above 10000 nM.
Taken in the same sequence, the figures for `Cc1cccc2cc(C(C)Nc3ncnc4[nH]cnc34)nc(OC3CCOCC3)c12` (stereo not drawn) [Compound 40] were below 1000 nM and above 10000 nM.

As usually defined, the IC50 is the concentration that gives 50% inhibition.
